# From US20040241860A1, “Method of breeding glyphosate resistant plants” (Advanta Technology Limited, priority 1998, published 2004)
# Tests used:
# Assay type in all cases: in vivo, corn
# [1] = test system: heterozygous resistant plants (Rr, Glyphosate-resistance event GA21); test: Foliar glyphosate spray of putative heterozygous resistant plants, plant mortality (Example 1)
# Excerpt: (§1) Progeny of a cross between a homozygous resistant plant (RR) and a homozygous susceptible plant (rr) were planted at the Garst Research Centre near Slater, Iowa, and at the Hawaii Research Centre near Kunia, Hi. It was expected that none of the progeny would segregate for resistance to foliar applications of glyphosate. To test this, the progeny growing at the IA test site were sprayed with glyphosate at a rate of 64 oz per acre during the V5 and V6 stages of growth (26 days after planting). At the same time and rate, several plants in a row of known susceptible plants were sprayed. All of the sprayed plots were examined for plant mortality 7 days after spraying. As expected, all of the susceptible check plants were dead and while all of the putative heterozygous resistant plants were alive (Table 1).
# (§2) A second application of 32oz per acre was applied to the heterozyous resistant plants at the V7 to V8 stage of growth (9 days later). These plants comprised the “Sprayed” class in subsequent experiments. In HI, none of the plants were sprayed with glyphosate and these plants comprised the “Unsprayed” class in subsequent experiments. At both locations, crosses were made between the heterozygous resistant plants and homozygous susceptible plants.
# [2] = test system: homozygous susceptible plants (rr); test: Foliar glyphosate spray of known susceptible check plants, plant mortality (Example 1)
# Excerpt: as §1
# [3] = test system: progeny of crosses between heterozygous resistant plants and homozygous susceptible plants; test: Evaluation of progeny from Sprayed and Unsprayed classes: counts of resistant and susceptible plants after glyphosate spray (Example 2); settings: progeny sprayed 64 oz per acre V3-V4, counted ten days post-application
# Excerpt: as §2
# Progeny of the crosses from each class were planted at the HI location. All progeny plants from each class were sprayed with glyphosate at a rate of 64 oz per acre during the V3 to V4 stages of growth. Ten days post-application, counts of resistant and susceptible plants were made for each class. The expected segregation, 1:1 resistant to susceptible, was compared to the observed segregation for each class (Table 2).
# [4] = progeny of Unsprayed class (parents not sprayed), 182 plants
smiles,measurement,setting,value
O=C(O)CNCP(=O)(O)O [glyphosate],Observed Segregation,"[1]; class Heterozygous Resistant, 64 oz per acre at V5 and V6 stages (26 days after planting), examined 7 days after spraying",All Resistant
same,plant mortality,"[1]; putative heterozygous resistant plants, 64 oz per acre, V5 and V6, 7 days after spraying",alive
same,Observed Segregation,"[2]; class Homozygous Susceptible, 64 oz per acre at the same time and rate, examined 7 days after spraying",All Susceptible
same,plant mortality,"[2]; susceptible check plants, 64 oz per acre, 7 days after spraying",dead
same,Observed Segregation: Resistant plants,"[3]; progeny of Sprayed class (parents 64 oz per acre V5-V6 plus 32 oz per acre V7-V8), 504 plants",504
same,Observed Segregation: Resistant plants,[3]; [4],100
same,Observed Segregation: Susceptible plants,[3]; [4],82
